Results as given in patent publication US20050059639A1, “Ophthalmic compositions and method for treating eye discomfort and pain” (priority 2003, published 2005).
Marks after values point to notes of the source that are not given here. Each block holds one compound with its values, some of them ahead of it.

Experiments:
[1] = test system: conjunctivitis; assay: Eye drops in subjects with allergic conjunctivitis; type: in vivo, human; settings: for stinging sensations: 0.1% solution, medial canthus/closed eye, about every 8 hours
Text: A subject, suffered from seasonal allergy. During the months of March through May, they would wake up in the morning sneezing, with a runny nose, and itchy eyes. The rhinitis, nasal congestion and obstruction were relieved to some extent by taking a Claritin® antihistamine tablet, but the symptoms of itchy, tearing, and red eyes were not. This individual applied, by the medial canthus/closed eye method in which they had been instructed, several drops of a 0.1% solution disec-butyl-n-pentyl-phosphine oxide ophthalmic eye drop solution, into each eye about every 8 hours for two days. […] They felt more clear-sighted and vigilant, and was of the opinion that the eye drops had therapeutic value for their conjunctivitis. Similar results were obtained with 3 additional subjects suffering from ocular allergies. A subject, suffered from perennial rhinitis that was aggravated by sinusitis, nasal surgery, and a prolonged course of antibiotics. They developed a generalized allergic condition with severe itchy rash on their back, dermatitis on their face (especially on their cheeks), and had itchy, puffy and red eyes. This individual applied, by the medial canthus/closed eye method in which they had been instructed, several drops of a 0.1% solution disec-butyl-pentyl-phosphine oxide ophthalmic solution into each eye for about every 8 hours for three days. […] The subject was of the opinion that the eye drops had therapeutic value for their conjunctivitis.

[2] = test system: tongue of human volunteers; assay: Cooling sensations when applied to the tongue of human volunteers; type: in vivo; settings: for Duration of Action: duration of the cooling action on the tongue; for Relative Potency: reciprocal of threshold, normalized to unity for analogs with 1.25 μg/ml; for Threshold: threshold for producing cooling sensations on the tongue of human volunteers
Description: (§1) The therapeutic concentrations of the preferred analogs are in the range of 10 to 80 μg/ml […], but concentrations as low as 0.1 μg/ml may elicit effects in sensitive individuals.

[3] = test system: eye disorders; assay: Estimate of ideal therapeutic eye drop concentration to relieve eye disorders; type: in vivo, human; settings: estimate of ideal therapeutic concentration applied as eye drops to relieve eye disorders
Description: as §1
The potency of certain specific trialkyl phosphine oxides, e.g. isopropyl, sec-butyl, n-octyl-phosphine oxide, in relieving eye discomfort is exceptionally high, on the order of 0.001%. In such situations, an alternative preferred description of an effective unit dose is 0.01 mg/ml or 10 μg/ml, which is equivalent to 0.001% weight percent.

[4] = test system: medial canthus of the eyelids; assay: Sensory quality of the solution on the medial canthus of the eyelids / eye surface; type: in vivo, human; settings: solution applied on the medial canthus of the eyelids
Text: [table] In selecting a particular analog, it is desirable to have one that has a long duration of action (several hours) and minimal stinging and burning sensations. These parameters are not predicted by the cooling effect of these substances on the human tongue, but must be determined by experiment. […] Thus, the hexyl analog is the preferred therapeutic of the two. The other particularly preferred analogs that have the desired qualities of long duration of action and absence of stinging and burning effects are identified with an asterisk in Table 1.

[5] = test system: ocular pain; assay: Eye drops for ocular pain after refractive eye surgery (LASIK); type: in vivo, human
Text: A subject, underwent bilateral refractive eye surgery (LASIK) for myopia in order to maintain their qualifications for special duties in the military. On the first day after surgery their eye surfaces and eyelids were bright red from dilated and enlarged blood vessels, but there was little pain. However, on the second day, the individual suffered excruciating pain from their eyes that was incapacitating and prevented them from going to work. This individual volunteered to apply eye drops of a 0.05% solution disec-butyl-n-hexyl-phosphine oxide ophthalamic into each eye for about every 6 hours for three days. They were instructed on how to instill the eye drops into the nasal corner (medial canthus) of their closed eyes and how to avoid the initial discomforts of the solution. […] They felt much better and was of the opinion that the eye drops had therapeutic value for ocular pain.

[6] = test system: dry eyes; assay: Eye drops in contact lens user with dry eyes; type: in vivo, human; settings: 0.2% solution with 0.5% carboxymethylcellulose
Text: The subject of example 4 is a daily user of disposable soft contact lenses, has “dry eyes”, and is a constant user of Refresh Eyes®, an artificial tears solution with 0.5% carboxymethylcellulose stored in a unit dispenser. They were instructed on how to instill the eye drops into the nasal corner (medial canthus) of their closed eyes and how to avoid the initial discomforts of the solution. The subject, who is an internationally-ranked tennis player, volunteered to self-administer, by the medial canthus/closed eye method, a 0.2% solution disec-butyl-n-hexyl-phosphine oxide ophthalmic solution containing 0.5% carboxymethylcellulose.

[7] = test system: skin of upper eyes; assay: Application to skin of the upper eyes by swabstick (eye strain, contact lens user); type: in vivo, human
Description: Another modification of drug delivery was discovered. […] Example 4 notes that topical application of a 5% solution of a trialkyl phosphine oxide dissolved in pure propylene glycol produces robust cooling when applied in this manner.
A subject was stuck in traffic for over 2 hours on a hot and sunny (95° to 97° F.) day in an old car without air-conditioning. They were a user of soft contact lenses. […] They wanted to go on-line to work on a database project, but their eyestrain hindered their ability to focus. They volunteered to apply onto the skin of their upper eyes a 5% solution of disec-butyl-n-hexyl-phosphine oxide dissolved in 100% propylene glycol. A cotton swabstick was used to dab the solution onto the surfaces of the skin with extra care not touch the margins of the eyelids or eye surface. After drug application, a robust cooling sensation developed in the eyes that lasted for about 3 hours. […] They also reported that they felt more alert and energetic.

[8] = test system: opened eyes of volunteers; assay: Eye drops applied directly to the opened eyes of volunteers; type: in vivo, human
Description: (§2) For trialkyl phosphine oxide eye drop solutions of this invention, I have discovered an indirect method of application as follows. The eye dropper is aimed at the medial canthus (nasal corner) of the eye, the eye is then closed, the dispenser is squeezed to emit the eye drops, and the eye kept closed for about 1 min. This method of application can substantially avoid stinging and burning sensations. Apparently, the adaptation period of about 1 min allows the sensory processes to develop tolerance to the initial stinging and burning stimuli. For example, if a 0.4 mg/ml solution of disec-butyl, n-hexyl-phosphine oxide [synonym, 1-(Di-sec-butyl-phosphinoyl)-hexane] in isotonic-buffered saline is dropped on the open eye, it causes stinging and burning for about 1 min. However, applied onto the corners of the eye, with the eyes closed for 1 min, these stinging and burning sensations are avoided. The medial canthus is preferred to the lateral canthus because the geometry of the orbit permits a longer residence time for the eye drop applied to the medial corner. Drops applied to the lateral canthus are less precisely located and rapidly dribble off the zygoma (cheekbone). A user can be instructed in this indirect method by including the instructions on packaging labels and/or inserts associated with the doses.
A 0.05% (0.5 mg/ml) disec-butyl-n-hexyl-phosphine oxide eye drop solution was prepared by adding the compound to an isotonic solution of sodium chloride, 0.65% in deionized water, monobasic potassium phosphate/sodium hydroxide buffer, preserved with disodium EDTA and benzalkonium chloride. The liquid was individually aliquoted into a ¼ oz. bottle with a Yorker spout (E.D. Luce Packaging) suitable for droplet delivery. This solution was applied to the opened eyes of three volunteers, with two to three drops of the solution applied to each eye. The subjects complained of stinging and burning sensations on the eye surface, lasting for about 2 min and requiring the subjects to shut their eyes. […]

[9] = test system: closed eyes of volunteers; assay: Eye drops applied to medial canthus of closed eyes, kept closed about 1 min; type: in vivo, human
Description: as §2
The solution, as in Example 1, was then used by another three subjects with the instruction to apply the droplets to the nasal corner of the eye (medial canthus), without touching the tip of the dispenser to the eyelid surface, to let the solution seep into the eyelids and eye surface but to keep eyes closed for at least one minute. The subjects reported slight sensations of stinging when the eyes were opened, effects that lasted for less than 1 minute, followed by sensations of coolness and comfort lasting at least two hours. The experiment was then repeated, but with a higher concentration of 0.2% of disec-butyl-n-hexyl-phosphine oxide.
A 0.2% (2.0 mg/ml) disec-butyl-n-heptyl-phosphine oxide eye drop solution was prepared by adding the compound to an isotonic solution of sodium chloride, 0.65% in deionized water, monobasic potassium phosphate/sodium hydroxide buffer, preserved with disodium EDTA and benzalkonium chloride. The liquid was individually aliquoted into a ¼ oz. bottle with a Yorker spout (E.D. Luce Packaging) suitable for droplet delivery. This solution was then applied to the closed eyes of three volunteers, with two to three drops of the solution applied to each eye. The subjects complained of stinging and burning sensations on the eye surface, lasting for about 2 min. A series of six solutions were then prepared in which six different hydrocarbon polyols were added to the parent 0.2% solution. The individual additions were 1.5% sucrose, 1.5% fructose, 1.5% dextrose, 1.5% lactose, 1.5% inositol, or 0.5% carboxymethylcellulose. […] There was some tearing, but no evidence of increased eye redness from the hydrocarbon polyols and subjective complaints of discomfort were minimal.

[10] = 0.1% solution every 8 hours for two days, seasonal allergy
[11] = 0.2% solution, medial canthus/closed eye

stinging sensations [1]: initial mild sensation of “stinging”
stinging sensations ([1]; listed as disec-butyl-pentyl-phosphine oxide): No significant stinging sensations
Compound: CCCCCP(=O)(C(C)CC)C(C)CC (stereo not shown) [n-C5H11 / sec-C4H9 / sec-C4H9, disec-butyl-n-pentyl-phosphine oxide]
effect on eye discomfort ([1]; 0.1% solution every 8 hours for three days, generalized allergic condition): relief of discomfort
itching [1, 10]: substantially reduced
redness [1, 10]: diminished
Duration of Action [2]: 10 min
Relative Potency [2]: 1
Threshold [2]: 1.25 µg/mL
Eye Therapy [3]: 60* μg/ml
Sensory Quality [4]: cool only

tearing [6]: no increased tearing
duration of stinging and burning ([8]; 0.4 mg/ml in isotonic-buffered saline dropped on the open eye): about 1 min
duration of stinging and burning sensations on the eye surface ([8]; 0.05% (0.5 mg/ml) solution, 2-3 drops, opened eyes, three volunteers): about 2 min
redness / vasodilatation on eye surface or eyelids ([8]; 0.05% solution, opened eyes): no evidence of increased redness
stinging and burning sensations ([9]; 0.4 mg/ml applied onto corners of the eye, eyes closed for 1 min): avoided
duration of slight stinging when eyes were opened ([9]; 0.05% solution, medial canthus, eyes closed at least one minute, three subjects): less than 1 minute
sensations of stinging and burning vs 0.05% [9, 11]: slightly increased
Compound: CCCCCCP(=O)(C(C)CC)C(C)CC (stereo not shown) [n-C6H13 / sec-C4H9 / sec-C4H9, 1-(Di-sec-butyl-phosphinoyl)-hexane]
adverse effects ([5]; 0.05% solution about every 6 hours for three days after LASIK): no significant adverse effects
acute pain from the eye surface ([5]; 0.05% solution about every 6 hours for three days, second day after LASIK, medial canthus/closed eye): significantly diminished within minutes
Duration of Action [2]: 20 min
potency on the human tongue (comparison of the two analogs) ([2]; hexyl vs heptyl analog): about equipotent
Relative Potency [2]: 1
Threshold [2]: 1.25 µg/mL
effect on eye dryness (subject's opinion) [6]: useful to alleviate eye dryness
reported sensations ([6]; medial canthus/closed eye, one subject): slight tingling in their eyelids followed by refreshing sensations in their eyelids and eye surface
Eye Therapy [3]: 45 µg/mL
duration of robust cooling sensation in the eyes ([7]; 5% solution in 100% propylene glycol dabbed on skin of upper eyes, one subject): about 3 hours
effect on eye fatigue, irritation and discomfort ([7]; 5% solution in 100% propylene glycol on skin of upper eyes): alleviated their sense of eye fatigue, irritation, and discomfort
Sensory Quality [4]: cool/sting
duration of sensations of coolness and comfort ([9]; 0.05% solution, medial canthus/closed eye): at least two
tearing, irritation or redness [9, 11]: no signs of tearing was observed, nor of signs of irritation or redness
